Source: patent US9469617B2, “Molecules having certain pesticidal utilities, and intermediates, compositions, and processes related thereto” (priority 2014, dated 2016)
Structures can show the parent of a compound that is named as a salt. Where two headings read alike, the source gives them in different places.

Tests used:
Assay type in all cases: in vivo
[1] = test system: Yellow Fever Mosquito (YFM) (Aedes aegypti); experiment: Bioassay on Yellow Fever Mosquito (YFM) larvae, 96-well plate; conditions: about 1 day-old larvae, master plate 4000 ppm in DMSO diluted, scored on mortality after 3 days
Description: Certain molecules disclosed in this document were tested against YFM using procedures described in the following paragraph. In the reporting of the results, the “GPA & YFM Rating Table” was used (See Table Section).
Master plates containing 400 μg of a molecule dissolved in 100 μL of dimethyl sulfoxide (DMSO) (equivalent to a 4000 ppm solution) are used. A master plate of assembled molecules contains 15 μL per well. To this plate, 135 μL of a 90:10 water:acetone mixture is added to each well. A robot (Biomek® NXP Laboratory Automation Workstation) is programmed to dispense 15 μL aspirations from the master plate into an empty 96-well shallow plate (“daughter” plate). There are 6 reps (“daughter” plates) created per master. The created daughter plates are then immediately infested with YFM larvae.
The day before plates are to be treated, mosquito eggs are placed in Millipore water containing liver powder to begin hatching (4 g. into 400 mL). After the daughter plates are created using the robot, they are infested with 220 μL of the liver powder/larval mosquito mixture (about 1 day-old larvae). After plates are infested with mosquito larvae, a non-evaporative lid is used to cover the plate to reduce drying. Plates are held at room temperature for 3 days prior to grading. After 3 days, each well is observed and scored based on mortality.

[2] = test system: Beet Armyworm (BAW) (Spodoptera exigua); experiment: Bioassay on Beet Armyworm (BAW), 128-well diet tray assay; conditions: 168 h, read-out: BAW % Control (or Mortality) rating
Description: (§1) Certain molecules disclosed in this document were tested against BAW and CL using procedures described in the following examples. In the reporting of the results, the “BAW & CL Rating Table” was used (See Table Section).
Bioassays on BAW were conducted using a 128-well diet tray assay. one to five second instar BAW larvae were placed in each well (3 mL) of the diet tray that had been previously filled with 1 mL of artificial diet to which 50 μg/cm^2 of the test compound (dissolved in 50 μL of 90:10 acetone-water mixture) had been applied (to each of eight wells) and then allowed to dry. Trays were covered with a clear self-adhesive cover, and held at 25° C., 14:10 light-dark for five to seven days. Percent mortality was recorded for the larvae in each well; activity in the eight wells was then averaged. The results are indicated in the tables entitled “Table ABC: Assay Results” and “Table ABCD: Assay Results” (See Table Section).

[3] = test system: Cabbage Looper (CL) (Trichoplusia ni); experiment: Bioassay on Cabbage Looper (CL), 128-well diet tray assay; conditions: 168 h, read-out: CL % Control (or Mortality) rating
Description: as §1
Bioassays on CL were conducted using a 128-well diet tray assay. One to five second instar CL larvae were placed in each well (3 mL) of the diet tray that had been previously filled with 1 mL of artificial diet to which 50 μg/cm^2 of the test compound (dissolved in 50 μL of 90:10 acetone-water mixture) had been applied (to each of eight wells) and then allowed to dry. Trays were covered with a clear self-adhesive cover, and held at 25° C., 14:10 light-dark for five to seven days. Percent mortality was recorded for the larvae in each well; activity in the eight wells was then averaged. The results are indicated in the table entitled “Table ABC: Assay Results” and “Table ABCD: Assay Results” (See Table Section).

[4] = Table ABC, 50 μg/cm^2 on artificial diet, second instar larvae, five to seven days, 25° C.
[5] = Table ABCD, 50 μg/cm^2 on artificial diet, second instar larvae, five to seven days, 25° C.

For `CC(C)c1ccc(Cl)cc1N1C(=O)CS/C1=N\C(=O)NC1CCc2cc(-c3ncn(-c4ccc(OC(F)(F)F)cc4)n3)ccc2C1` (centres unmarked) [P33, (Z)-1-(3-(5-Chloro-2-isopropylphenyl)-4-oxothiazolidin-2-ylidene)-3-(6-(1-(4-(trifluoromethoxy)phenyl)-1H-1,2,4-triazol-3-yl)-1,2,3,4-tetrahydronaphthalen-2-yl)urea], the “YFM % Control (or Mortality) rating” value ([1]; Table ABC) was “A (80-100)”, the mortality at 50 µg/cm2 [2, 4] was 50 to 100% and the mortality at 50 µg/cm2 [3, 4] was 50 to 100%.

With `CCCc1ccc(C)cc1NC(=S)NC(=O)NC1CCc2cc(-c3ncn(-c4ccc(OC(F)(F)F)cc4)n3)ccc2C1` (centres unmarked) [P27, 1-[(5-Methyl-2-propyl-phenyl)carbamothioyl]-3-[6-[1-[4-(trifluoromethoxy)phenyl]-1,2,4-triazol-3-yl]tetralin-2-yl]urea] the “YFM % Control (or Mortality) rating” value ([1]; Table ABC) was “A (80-100)”, the mortality at 50 µg/cm2 [2, 4] was 50 to 100% and the mortality at 50 µg/cm2 [3, 4] was 50 to 100%.

For `CCCc1ccc(C)cc1NC(=S)NC(=O)NC1Cc2ccc(-c3ncn(-c4ccc(OC(F)(F)F)cc4)n3)cc2C1` (centres unmarked) [F8, 1-[(5-Methyl-2-propyl-phenyl)carbamothioyl]-3-[5-[1-[4-(trifluoromethoxy)phenyl]-1,2,4-triazol-3-yl]indan-2-yl]urea], the mortality at 50 µg/cm2 [2, 4] was 50 to 100% and the mortality at 50 µg/cm2 [3, 4] was 50 to 100%.

`Cc1ccc(C(C)C)c(N2/C(=N/C(=O)NC3Cc4ccc(-c5ncn(-c6ccc(OC(F)(F)F)cc6)n5)cc4C3)SCCC2C)c1` (centres unmarked) [P16, (Z)-1-(3-(2-Isopropyl-5-methylphenyl)-4-methyl-1,3-thiazinan-2-ylidene)-3-(5-(1-(4-(trifluoromethoxy)phenyl)-1H-1,2,4-triazol-3-yl)-2,3-dihydro-1H-inden-2-yl)urea] was tested, and the mortality at 50 µg/cm2 [2, 4] was 50 to 100% and the mortality at 50 µg/cm2 [3, 4] was 50 to 100%.

In the case of `CC(C)c1ccc(Cl)cc1NC(=S)NC(=O)NC1CCc2cc(-c3ncn(-c4ccc(OC(F)(F)F)cc4)n3)ccc2C1` (centres unmarked) [P26, 1-[(5-Chloro-2-isopropyl-phenyl)carbamothioyl]-3-[6-[1-[4-(trifluoromethoxy)phenyl]-1,2,4-triazol-3-yl]tetralin-2-yl]urea], the “YFM % Control (or Mortality) rating” value ([1]; Table ABC) was “A (80-100)”, the mortality at 50 µg/cm2 [2, 4] was 50 to 100% and the mortality at 50 µg/cm2 [3, 4] was 50 to 100%.

For `NC1Cc2ccc(-c3ncn(-c4ccc(OC(F)(F)F)cc4)n3)cc2C1` (centres unmarked) [C3, 5-(1-(4-(trifluoromethoxy)phenyl)-1H-1,2,4-triazol-3-yl)-2,3-dihydro-1H-inden-2-amine dihydrochloride], the “YFM % Control (or Mortality) rating” value ([1]; Table ABCD) was “A (80-100)”, the mortality at 50 µg/cm2 [2] was 50 to 100% and the mortality at 50 µg/cm2 [3] was 50 to 100%.

With `Cc1ccc(C(C)C)c(NC(=S)NC(=O)NC2Cc3ccc(-c4ncn(-c5ccc(OC(F)(F)F)cc5)n4)cc3C2)c1` (centres unmarked) [F1, 1-[(2-isopropyl-5-methyl-phenyl)carbamothioyl]-3-[5-[1-[4-(trifluoromethoxy)phenyl]-1,2,4-triazol-3-yl]indan-2-yl]urea] the “YFM % Control (or Mortality) rating” value ([1]; Table ABC) was “A (80-100)”, the mortality at 50 µg/cm2 [2, 4] was 50 to 100% and the mortality at 50 µg/cm2 [3, 4] was 50 to 100%.

In the case of `Cc1ccc(C(C)C)c(NC(=S)NC(=O)NC2Cc3ccc(-c4ncn(-c5ccc(OC(F)(F)C(F)(F)F)cc5)n4)cc3C2)c1` (centres unmarked) [F3, 1-[(2-isopropyl-5-methyl-phenyl)carbamothioyl]-3-[5-[1-[4-(1,1,2,2,2-pentafluoroethoxy)phenyl]-1,2,4-triazol-3-yl]indan-2-yl]urea], the “YFM % Control (or Mortality) rating” value ([1]; Table ABC) was “A (80-100)”, the mortality at 50 µg/cm2 [2, 4] was 50 to 100% and the mortality at 50 µg/cm2 [3, 4] was 50 to 100%.

In the case of `CCCc1ccc(C)cc1NC(N)=S` [C20, 1-(5-methyl-2-propylphenyl)thiourea], the “YFM % Control (or Mortality) rating” value ([1]; Table ABCD) was “D (No activity noticed in this bioassay)”.

In the case of `CCc1ccc(C)cc1NC(N)=S` [C22, 1-(2-Ethyl-5-methylphenyl)thiourea], the “YFM % Control (or Mortality) rating” value ([1]; Table ABCD) was “D (No activity noticed in this bioassay)”.

Work on `CC(C)(C)OC(=O)NC1Cc2ccc(-c3ncn(-c4ccc(OC(F)(F)C(F)(F)F)cc4)n3)cc2C1` (centres unmarked) [C2, tert-butyl (5-(1-(4-(perfluoroethoxy)phenyl)-1H-1,2,4-triazol-3-yl)-2,3-dihydro-1H-inden-2-yl)carbamate] yielded a mortality at 50 µg/cm2 [2, 5] of 50 to 100% and a mortality at 50 µg/cm2 [3, 5] of 50 to 100%.

Compound `CC(C)c1ccccc1N1C(=O)CCS/C1=N\C(=O)NC1Cc2ccc(-c3ncn(-c4ccc(OC(F)(F)F)cc4)n3)cc2C1` (centres unmarked) [FA4, (Z)-1-(3-(2-isopropylphenyl)-4-oxo-1,3-thiazinan-2-ylidene)-3-(5-(1-(4-(trifluoromethoxy)phenyl)-1H-1,2,4-triazol-3-yl)-2,3-dihydro-1H-inden-2-yl)urea] has a mortality at 50 µg/cm2 [2, 4] of 50 to 100% and a mortality at 50 µg/cm2 [3, 4] of 50 to 100%.

For `NC1Cc2ccc(-c3ncn(-c4ccc(OC(F)(F)F)cc4)n3)cc2C1.O=C(O)C(F)(F)F` (centres unmarked) [C4, 5-(1-(4-(trifluoromethoxy)phenyl)-1H-1,2,4-triazol-3-yl)-2,3-dihydro-1H-inden-2-amine 2,2,2-trifluoroacetate], the “YFM % Control (or Mortality) rating” value ([1]; Table ABCD) was “D (No activity noticed in this bioassay)”.

Compound `CCc1cccc(C)c1NC(=S)NC(=O)NC1Cc2ccc(-c3ncn(-c4ccc(OC(F)(F)F)cc4)n3)cc2C1` (centres unmarked) [F6, 1-[(2-Ethyl-6-methyl-phenyl)carbamothioyl]-3-[5-[1-[4-(trifluoromethoxy)phenyl]-1,2,4-triazol-3-yl]indan-2-yl]urea] has a mortality at 50 µg/cm2 [2, 4] of 50 to 100% and a mortality at 50 µg/cm2 [3, 4] of 50 to 100%.

With `CCc1ccccc1NC(=S)NC(=O)NC1Cc2ccc(-c3ncn(-c4ccc(OC(F)(F)F)cc4)n3)cc2C1` (centres unmarked) [F7, 1-[(2-Ethylphenyl)carbamothioyl]-3-[5-[1-[4-(trifluoromethoxy)phenyl]-1,2,4-triazol-3-yl]indan-2-yl]urea] the mortality at 50 µg/cm2 [2, 4] was 50 to 100% and the mortality at 50 µg/cm2 [3, 4] was 50 to 100%.

`CCc1ccc(C)cc1NC(=S)NC(=O)NC1Cc2ccc(-c3ncn(-c4ccc(OC(F)(F)F)cc4)n3)cc2C1` (centres unmarked) [F5, 1-[(2-Ethyl-5-methyl-phenyl)carbamothioyl]-3-[5-[1-[4-(trifluoromethoxy)phenyl]-1,2,4-triazol-3-yl]indan-2-yl]urea] gave a mortality at 50 µg/cm2 [2, 4] of 50 to 100% and a mortality at 50 µg/cm2 [3, 4] of 50 to 100%.

`C=C(C)c1ccc(Cl)cc1[N+](=O)[O-]` [C8, 4-Chloro-2-nitro-1-(prop-1-en-2-yl)benzene] was tested, and the “YFM % Control (or Mortality) rating” value ([1]; Table ABCD) was “D (No activity noticed in this bioassay)”.

In the case of `COc1ccc(C(C)C)c(NC(=S)NC(=O)c2ccccc2)c1` [C18, N-((2-Isopropyl-5-methoxyphenyl)carbamothioyl)benzamide], the “YFM % Control (or Mortality) rating” value ([1]; Table ABCD) was “D (No activity noticed in this bioassay)”.

For `CCc1ccc(C)cc1NC(=S)NC(=O)c1ccccc1` [C17, N-((2-Ethyl-5-methylphenyl)carbamothioyl)benzamide], the “YFM % Control (or Mortality) rating” value ([1]; Table ABCD) was “D (No activity noticed in this bioassay)”.

In the case of `Cc1ccc(C(C)C)c(N2C(=O)CS/C2=N\C(=O)Oc2ccc([N+](=O)[O-])cc2)c1` [C30, (Z)-4-nitrophenyl (3-(2-isopropyl-5-methylphenyl)-4-oxothiazolidin-2-ylidene)carbamate], the “YFM % Control (or Mortality) rating” value ([1]; Table ABCD) was “D (No activity noticed in this bioassay)” and the mortality at 50 µg/cm2 [2] was 0%.

Work on `Cc1ccc(C(C)C)c(N2C(=O)CCS/C2=N\C(=O)NC2Cc3ccc(-c4ncn(-c5ccc(OC(F)(F)F)cc5)n4)cc3C2)c1` (centres unmarked) [P17, (Z)-1-(3-(2-Isopropyl-5-methylphenyl)-4-oxo-1,3-thiazinan-2-ylidene)-3-(5-(1-(4-(trifluoromethoxy)phenyl)-1H-1,2,4-triazol-3-yl)-2,3-dihydro-1H-inden-2-yl)urea] yielded a mortality at 50 µg/cm2 [2, 4] of 50 to 100% and a mortality at 50 µg/cm2 [3, 4] of 50 to 100%.

Work on `CC(C)c1ccccc1NC(=S)NC(=O)NC1Cc2ccc(-c3ncn(-c4ccc(OC(F)(F)F)cc4)n3)cc2C1` (centres unmarked) [F14, 1-[(2-Isopropylphenyl)carbamothioyl]-3-[5-[1-[4-(trifluoromethoxy)phenyl]-1,2,4-triazol-3-yl]indan-2-yl]urea] yielded a mortality at 50 µg/cm2 [2, 4] of 50 to 100% and a mortality at 50 µg/cm2 [3, 4] of 50 to 100%.
